According to US8349883B2, “Hydroxamate-based inhibitors of deacetylases B” (Novartis AG, priority 2008, dated 2013):

Columns and labels:
HDAC-1 = target: T1, HDAC-1 (Homo sapiens, UniProt Q13547); assay: HDAC inhibition assay (purified GST-HDAC protein); assay type: biochemical
T1 construct: made in house; host or cells: Sf9 or Sf21 insect cells (baculovirus, donor vector pFB-GSTX3)
Excerpt: The baculovirus donor vector pFB-GSTX3 was used to generate a recombinant baculovirus that can express the HDAC polypeptide. Transfer vectors containing the HDAC coding region were transfected into the DH10Bac cell line (GIBCO) and plated on selective agar plates. Colonies without insertion of the fusion sequence into the viral genome (carried by the bacteria) were blue. Single, white colonies were picked and viral DNAs (bacmid) were isolated from the bacteria by standard plasmid purification procedures. Sf9 cells or Sf21 (American Type Culture Collection) cells were then transfected in […] flasks with the viral DNA using Cellfectin reagent.
Virus-containing media was collected from the transfected cell culture and used for infection to increase its titer. Virus-containing media obtained after two rounds of infection was used for large-scale protein expression. For large-scale protein expression 100 cm^2 round tissue culture plates were seeded with 5×10^7 cells/plate and infected with 1 mL of virus-containing media (at an approximately MOI of 5). After 3 days, the cells were scraped off the plate and centrifuged at 500 rpm for 5 minutes. Cell pellets from 10-20, 100 cm^2 plates, were re-suspended in 50 mL of ice-cold lysis buffer (25 mM tris-HCl, pH 7.5, 2 mM EDTA, 1% NP-40, 1 mM DTT, 1 mM P MSF). The cells were stirred on ice for 15 minutes and then centrifuged at 5,000 rpms for 20 minutes.
The centrifuged cell lysate was loaded onto a 2 mL glutathione-sepharose column (Pharmacia) and was washed thrice with 10 mL of 25 mM tris-HCl, pH 7.5, 2 mM EDTA, 1 mM DTT, 200 mM NaCl. The GST-tagged proteins were then eluted by 10 applications (1 mL each) of 25 mM tris-HCl, pH 7.5, 10 mM reduced-glutathione, 100 mM NaCl, 1 mM DTT, 10% glycerol and stored at −70° C.
HDAC assays with purified GST-HDAC protein were carried out in a final volume of 30 μL containing 15 ng of GST-HDAC protein, 20 mM tris-HCl, pH 7.5, 1 mM MnCl2, 10 mM MgCl2, 1 mM DTT, 3 μg/mL poly(Glu,Tyr) 4:1, 1% DMSO, 2.0 μM ATP (γ-[^33P]-ATP 0.1 μCi). The activity was assayed in the presence or absence of inhibitors. The assay was carried out in 96-well plates at ambient temperature for 15 minutes under conditions described below and terminated by the addition of 20 μL of 125 mM EDTA. Subsequently, 40 μL of the reaction mixture were transferred onto EMMOBILON-PVDF membrane (Millipore) previously soaked for 5 minutes with methanol, rinsed with water, then soaked for 5 minutes with 0.5% H3PO4 and mounted on vacuum manifold with disconnected vacuum source. After spotting all samples, a vacuum was connected and each well rinsed with 200 μL 0.5% H3PO4. Membranes were removed and washed four times on a shaker with 1.0% H3PO4, once with ethanol. Membranes were counted after drying at ambient temperature, mounting in Packard TopCount 96-well frame, and addition of 10 μL/well of MICROSCINT™ (Packard). IC50 values were calculated by linear regression analysis of the percentage inhibition of each compound in duplicate, at 4 concentrations (usually 0.01, 0.1, 1 and 10 μM).
• Input: 3×4 μL stopped assay on IMMOBILON membrane, not washed • Background (3 wells): assay with H2O instead of enzyme • Positive control (4 wells): 3% DMSO instead of compound • Bath control (1 well): no reaction mix
IC50 values were calculated by logarithmic regression analysis of the percentage inhibition of each compound at 4 concentrations (usually 3- or 10-fold dilution series starting at 10 μM). In each experiment, the actual inhibition by reference compound was used for normalization of IC50 values to the basis of an average value of the reference inhibitor: Normalized IC50=measured IC50 average ref IC50/measured ref IC50
Example: Reference inhibitor in experiment 0.4 μM, average 0.3 μM, Test compound in experiment 1.0 μM, normalization: 0.3/0.4=0.75 μM
For example, known HDAC inhibitors or a synthetic derivative thereof may be used as reference compounds.

HCT116 = HCT116 IC50; assay type: cell-based; settings: Homo sapiens, HCT-116

T1 sequence (Q13547 whole entry, species assumed): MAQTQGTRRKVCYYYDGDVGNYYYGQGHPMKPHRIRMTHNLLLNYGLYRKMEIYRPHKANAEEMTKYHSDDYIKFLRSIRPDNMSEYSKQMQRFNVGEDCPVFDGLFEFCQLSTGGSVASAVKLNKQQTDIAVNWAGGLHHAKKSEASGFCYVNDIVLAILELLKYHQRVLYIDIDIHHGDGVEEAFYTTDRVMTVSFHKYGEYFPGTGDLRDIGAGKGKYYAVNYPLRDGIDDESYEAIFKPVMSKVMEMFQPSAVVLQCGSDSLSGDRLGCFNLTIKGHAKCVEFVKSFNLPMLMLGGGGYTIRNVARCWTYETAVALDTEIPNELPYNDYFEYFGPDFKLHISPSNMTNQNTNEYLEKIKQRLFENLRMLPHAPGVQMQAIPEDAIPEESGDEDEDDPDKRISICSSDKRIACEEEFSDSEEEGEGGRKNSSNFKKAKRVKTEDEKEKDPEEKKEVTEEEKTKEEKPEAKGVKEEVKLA

SMILES	IC50 (HDAC-1) [nM]	IC50 (HCT116) [nM]
Cc1[nH]c2ccccc2c1CCN1CCCC1c1ccc(/C=C/C(=O)NO)cc1 (stereo not drawn) [Compound 1, (E)-N-Hydroxy-3-(4-{1-[2-(2-methyl-1H-indol-3-yl)-ethyl]-pyrrolidin-2-yl}-phenyl)-acrylamide]	3	1
O=C(/C=C/c1ccc(C2CCCN2CCCc2c[nH]c3ccccc23)cc1)NO (stereo not drawn) [Compound 2, (E)-N-Hydroxy-3-(4-{1-[3-(1H-indol-3-yl)-propyl]-pyrrolidin-2-yl}-phenyl)-acrylamide]	10	50
O=C(/C=C/c1ccc(C2CCCN2CCc2c[nH]c3ccccc23)cc1)NO (stereo not drawn) [Compound 3, (E)-N-Hydroxy-3-(4-{1-[2-(1H-indol-3-yl)-ethyl]-pyrrolidin-2-yl}-phenyl)-acrylamide]	1	1.2
Cc1cc2ccccc2n1CCN1CCCC1c1ccc(/C=C/C(=O)NO)cc1 (stereo not drawn) [Compound 4, (E)-N-Hydroxy-3-(4-{1-[2-(2-methyl-indol-1-yl)-ethyl]-pyrrolidin-2-yl}-phenyl)-acrylamide]	10	10
O=C(/C=C/c1ccc(C2CCCN2CCn2ccc3ccccc32)cc1)NO (stereo not drawn) [Compound 5, (E)-N-Hydroxy-3-{4-[1-(2-indol-1-yl-ethyl)-pyrrolidin-2-yl]-phenyl}-acrylamide]	6	10
COc1ccc2[nH]c(C)c(CCN3CCCC3c3ccc(/C=C/C(=O)NO)cc3)c2c1 (stereo not drawn) [Compound 6, (E)-N-Hydroxy-3-(4-{1-[2-(5-methoxy-2-methyl-1H-indol-3-yl)-ethyl]-pyrrolidin-2-yl}-phenyl)-acrylamide]	2	1.2
O=C(/C=C/c1ccc(C2CCCN2CCc2c(-c3ccccc3)[nH]c3ccccc23)cc1)NO (stereo not drawn) [Compound 7, (E)-N-Hydroxy-3-(4-{1-[2-(2-phenyl-1H-indol-3-yl)-ethyl]-pyrrolidin-2-yl}-phenyl)-acrylamide]	12	3
CC(C)(C)c1[nH]c2cc([N+](=O)[O-])ccc2c1CCN1CCCC1c1ccc(/C=C/C(=O)NO)cc1 (stereo not drawn) [Compound 9, (E)-3-(4-{1-[2-(2-tert-Butyl-6-nitro-1H-indol-3-yl)-ethyl]-pyrrolidin-2-yl}-phenyl)-N-hydroxy-acrylamide]	7	0.5
CC(C)(C)c1[nH]c2cc(NS(C)(=O)=O)ccc2c1CCN1CCCC1c1ccc(/C=C/C(=O)NO)cc1 (stereo not drawn) [Compound 10, (E)-3-(4-{1-[2-(2-tert-Butyl-6-methanesulfonylamino-1H-indol-3-yl)-ethyl]-pyrrolidin-2-yl}-phenyl)-N-hydroxy-acrylamide]	3	2
Cc1[nH]c2ccccc2c1CC(=O)N1CCCC1c1ccc(/C=C/C(=O)NO)cc1 (stereo not drawn) [Compound 12, (E)-N-Hydroxy-3-(4-{1-[2-(2-methyl-1H-indol-3-yl)-acetyl]-pyrrolidin-2-yl}-phenyl)-acrylamide]	4	96
O=C(/C=C/c1ccc(C2CCCN2CCc2ccccc2)cc1)NO (stereo not drawn) [Compound 19, (E)-N-Hydroxy-3-[4-(1-phenethyl-pyrrolidin-2-yl)-phenyl]-acrylamide]	3	7
O=C(/C=C/c1ccc(C2CCCN2CCc2ccc(O)cc2)cc1)NO (stereo not drawn) [Compound 20, (E)-N-Hydroxy-3-(4-{1-[2-(4-hydroxy-phenyl)-ethyl]-pyrrolidin-2-yl}-phenyl)-acrylamide]	3	11
O=C(/C=C/c1ccc([C@@H]2CCCN2CCc2ccc(F)cc2)cc1)NO [Compound 21, (E)-3-(4-{(S)-1-[2-(4-Fluoro-phenyl)-ethyl]-pyrrolidin-2-yl}-phenyl)-N-hydroxy-acrylamide]	8	21
O=C(/C=C/c1ccc([C@@H]2CCCN2CCc2ccc(Cl)cc2)cc1)NO [Compound 22, (E)-3-(4-{(S)-1-[2-(4-Chloro-phenyl)-ethyl]-pyrrolidin-2-yl}-phenyl)-N-hydroxy-acrylamide]	7	13
O=C(/C=C/c1ccc(C2CCCN2CCc2ccc(Cl)c(Cl)c2)cc1)NO (stereo not drawn) [Compound 23, (E)-3-(4-{1-[2-(3,4-Dichloro-phenyl)-ethyl]-pyrrolidin-2-yl}-phenyl)-N-hydroxy-acrylamide]	19	97
O=C(/C=C/c1ccc(C2CCCN2CCc2ccc([N+](=O)[O-])cc2)cc1)NO (stereo not drawn) [Compound 24, (E)-N-Hydroxy-3-(4-{1-[2-(4-nitro-phenyl)-ethyl]-pyrrolidin-2-yl}-phenyl)-acrylamide]	8	43
O=C(/C=C/c1ccc(C2CCCN2CCc2ccccc2Cl)cc1)NO (stereo not drawn) [Compound 25, (E)-3-(4-{1-[2-(2-Chloro-phenyl)-ethyl]-pyrrolidin-2-yl}-phenyl)-N-hydroxy-acrylamide]	5	7
O=C(/C=C/c1ccc(C2CCCN2CCc2ccc(Cl)cc2Cl)cc1)NO (stereo not drawn) [Compound 26, (E)-3-(4-{1-[2-(2,4-Dichloro-phenyl)-ethyl]-pyrrolidin-2-yl}-phenyl)-N-hydroxy-acrylamide]	7	29
O=C(/C=C/c1ccc(C2CCCN2CCc2ccccc2F)cc1)NO (stereo not drawn) [Compound 27, (E)-3-(4-{1-[2-(2-Fluoro-phenyl)-ethyl]-pyrrolidin-2-yl}-phenyl)-N-hydroxy-acrylamide]	6	11
O=C(/C=C/c1ccc(C2CCCN2CC(O)c2ccccc2)cc1)NO (stereo not drawn) [Compound 28, (E)-N-Hydroxy-3-{4-[1-(2-hydroxy-2-phenyl-ethyl)-pyrrolidin-2-yl]-phenyl}-acrylamide]	25	85
Cc1ccc(C(O)CN2CCCC2c2ccc(/C=C/C(=O)NO)cc2)cc1 (stereo not drawn) [Compound 29, (E)-N-Hydroxy-3-{4-[1-(2-hydroxy-2-p-tolyl-ethyl)-pyrrolidin-2-yl]-phenyl}-acrylamide]	8	40
COc1ccc(C(O)CN2CCCC2c2ccc(/C=C/C(=O)NO)cc2)cc1 (stereo not drawn) [Compound 30, (E)-N-Hydroxy-3-(4-{1-[2-hydroxy-2-(4-methoxy-phenyl)-ethyl]-pyrrolidin-2-yl}-phenyl)-acrylamide]	14	46
Cc1nn(CC2CCOCC2)c(C)c1CCN1CCC[C@H]1c1ccc(/C=C/C(=O)NO)cc1 [Compound 109, (E)-3-[4-((S)-1-{2-[3,5-Dimethyl-1-(tetrahydro-pyran-4-ylmethyl)-1H-pyrazol-4-yl]-ethyl}-pyrrolidin-2-yl)-phenyl]-N-hydroxy-acrylamide]	3.2	
CC(C)(O)c1nn2ccccc2c1CCN1CCC[C@H]1c1ccc(CCC(=O)NO)cc1 [Compound 113, N-Hydroxy-3-[4-((S)-1-{2-[2-(1-hydroxy-1-methyl-ethyl)-pyrazolo[1,5-a]pyridin-3-yl]-ethyl}-pyrrolidin-2-yl)-phenyl]-propionamide]	75	
Cc1n[nH]c(C)c1CCN1CCC[C@@H]1c1ccc(/C=C/C(=O)NO)cc1 [Compound 117, (E)-3-(4-{(R)-1-[2-(3,5-Dimethyl-1H-pyrazol-4-yl)-ethyl]-pyrrolidin-2-yl}-phenyl)-N-hydroxy-acrylamide]	12	
Cc1n[nH]c(C)c1CCN1CCC[C@H]1c1ccc(CCC(=O)NO)cc1 [Compound 119, 3-(4-{(S)-1-[2-(3,5-Dimethyl-1H-pyrazol-4-yl)-ethyl]-pyrrolidin-2-yl}-phenyl)-N-hydroxy-propionamide]	155	
